Data published in the NIST ThermoML archive (doi:10.1021/je050273f).
± gives the expanded uncertainty stated by the source.

Assay: molar heat capacity at saturation pressure
Details: Liquid, Large sample (1 g) DSC

molar heat capacity (332.2 K)	molar heat capacity (342.1 K)	molar heat capacity (354.9 K)	molar heat capacity (361.8 K)	molar heat capacity (371.6 K)	molar heat capacity (381.5 K)	molar heat capacity (391.4 K)	molar heat capacity (401.3 K)	SMILES
259 ± 5.2 J/K/mol	263.1 ± 5.3 J/K/mol	268.3 ± 5.4 J/K/mol	272.7 ± 5.5 J/K/mol	278.4 ± 5.6 J/K/mol	283 ± 5.7 J/K/mol	288.8 ± 5.8 J/K/mol	293.5 ± 5.9 J/K/mol	CC(C)(C)c1ccccc1 [(1,1-dimethylethyl)benzene]
258.5 ± 5.2 J/K/mol	262.6 ± 5.3 J/K/mol	267.9 ± 5.4 J/K/mol	272.5 ± 5.5 J/K/mol	277.5 ± 5.6 J/K/mol	282.4 ± 5.6 J/K/mol	287.3 ± 5.7 J/K/mol	292.1 ± 5.8 J/K/mol	CCC(C)c1ccccc1 (stereo unspecified) [(1-methylpropyl)benzene]
259.1 ± 5.2 J/K/mol	263.5 ± 5.3 J/K/mol	268.8 ± 5.4 J/K/mol	273.9 ± 5.5 J/K/mol	278.6 ± 5.6 J/K/mol	283 ± 5.7 J/K/mol	289.1 ± 5.8 J/K/mol	293.8 ± 5.9 J/K/mol	CC(C)Cc1ccccc1 [(2-methylpropyl)benzene]
198.7 ± 4 J/K/mol	202.4 ± 4 J/K/mol	205.9 ± 4.1 J/K/mol	210.2 ± 4.2 J/K/mol	213.6 ± 4.3 J/K/mol	218 ± 4.4 J/K/mol	221.7 ± 4.4 J/K/mol	–	CCc1ccccc1 [ethylbenzene]
353.6 ± 7.1 J/K/mol	359.6 ± 7.2 J/K/mol	364.9 ± 7.3 J/K/mol	371.5 ± 7.4 J/K/mol	377.2 ± 7.5 J/K/mol	384.3 ± 7.7 J/K/mol	389.9 ± 7.8 J/K/mol	396.5 ± 7.9 J/K/mol	CCCCCCCc1ccccc1 [heptylbenzene]
640 ± 13 J/K/mol	651.3 ± 13 J/K/mol	662 ± 13 J/K/mol	671.9 ± 13 J/K/mol	683.3 ± 14 J/K/mol	695.3 ± 14 J/K/mol	710 ± 14 J/K/mol	721.1 ± 14 J/K/mol	CCCCCCCCCCCCCCCCc1ccccc1 [hexadecylbenzene]
323.1 ± 6.5 J/K/mol	328.8 ± 6.6 J/K/mol	334.1 ± 6.7 J/K/mol	340.1 ± 6.8 J/K/mol	347.9 ± 7 J/K/mol	353.8 ± 7.1 J/K/mol	359.1 ± 7.2 J/K/mol	366.1 ± 7.3 J/K/mol	CCCCCCc1ccccc1 [hexylbenzene]
229.1 ± 4.6 J/K/mol	234.2 ± 4.7 J/K/mol	238.5 ± 4.8 J/K/mol	242.5 ± 4.9 J/K/mol	246.7 ± 4.9 J/K/mol	251.1 ± 5 J/K/mol	255.2 ± 5.1 J/K/mol	259.5 ± 5.2 J/K/mol	CC(C)c1ccccc1 [isopropylbenzene]
227.4 ± 4.5 J/K/mol	231.4 ± 4.6 J/K/mol	235.8 ± 4.7 J/K/mol	240.1 ± 4.8 J/K/mol	244.6 ± 4.9 J/K/mol	249.3 ± 5 J/K/mol	252 ± 5 J/K/mol	–	CCCc1ccccc1 [propylbenzene]

SMILES	molar heat capacity (332.2 K)	molar heat capacity (342.1 K)	molar heat capacity (354.9 K)	molar heat capacity (361.8 K)	molar heat capacity (371.6 K)	molar heat capacity (381.5 K)	molar heat capacity (391.4 K)	molar heat capacity (401.3 K)
Cc1cccc(C)c1 [1,3-dimethylbenzene]	193.6 ± 3.9 J/K/mol	197.6 ± 4 J/K/mol	201.7 ± 4 J/K/mol	205.7 ± 4.1 J/K/mol	209.4 ± 4.2 J/K/mol	213.6 ± 4.3 J/K/mol	217.4 ± 4.3 J/K/mol	221.7 ± 4.4 J/K/mol
CCCCc1ccccc1 [butylbenzene]	259.1 ± 5.2 J/K/mol	263 ± 5.3 J/K/mol	267.8 ± 5.4 J/K/mol	272.9 ± 5.5 J/K/mol	277.6 ± 5.6 J/K/mol	283.9 ± 5.7 J/K/mol	288 ± 5.8 J/K/mol	293.9 ± 5.9 J/K/mol
